Assay [1] has as its target T1, 5-hydroxytryptamine receptor 3A (Homo sapiens, UniProt P46098).
T1 sequence (P46098 whole entry): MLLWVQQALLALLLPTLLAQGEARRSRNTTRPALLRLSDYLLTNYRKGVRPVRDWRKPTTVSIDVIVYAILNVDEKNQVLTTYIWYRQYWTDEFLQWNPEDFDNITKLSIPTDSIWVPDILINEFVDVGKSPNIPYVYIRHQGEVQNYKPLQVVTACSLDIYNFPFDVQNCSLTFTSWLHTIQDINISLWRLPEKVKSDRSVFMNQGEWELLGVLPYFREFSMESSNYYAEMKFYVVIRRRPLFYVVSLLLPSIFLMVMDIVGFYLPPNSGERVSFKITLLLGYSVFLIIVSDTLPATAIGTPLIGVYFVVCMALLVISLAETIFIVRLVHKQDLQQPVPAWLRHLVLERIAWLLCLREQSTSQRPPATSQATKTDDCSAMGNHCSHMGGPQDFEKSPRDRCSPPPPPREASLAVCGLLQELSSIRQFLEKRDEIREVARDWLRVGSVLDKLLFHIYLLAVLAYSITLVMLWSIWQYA
The class given is functional.

Assay [2] concerns the target T2, 5-hydroxytryptamine receptor 2C (Homo sapiens, UniProt P28335).
T2 sequence (P28335 whole entry): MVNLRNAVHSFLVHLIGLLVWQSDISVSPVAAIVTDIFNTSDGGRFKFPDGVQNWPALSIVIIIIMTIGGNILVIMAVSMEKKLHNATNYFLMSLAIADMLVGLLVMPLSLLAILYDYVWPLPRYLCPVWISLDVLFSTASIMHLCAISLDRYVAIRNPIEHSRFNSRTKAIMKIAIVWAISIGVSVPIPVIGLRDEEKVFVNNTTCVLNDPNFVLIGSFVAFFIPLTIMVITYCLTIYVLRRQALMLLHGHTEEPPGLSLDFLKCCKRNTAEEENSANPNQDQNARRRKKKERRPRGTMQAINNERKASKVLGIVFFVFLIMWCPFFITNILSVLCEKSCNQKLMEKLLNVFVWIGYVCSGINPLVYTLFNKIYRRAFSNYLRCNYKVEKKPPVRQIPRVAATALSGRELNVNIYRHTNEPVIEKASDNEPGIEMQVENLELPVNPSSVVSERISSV

The target in assay [3] is Histamine H2 receptor (Homo sapiens, UniProt P25021). The class given is functional, cell-based.
Chain of Histamine H2 receptor (P25021 whole entry): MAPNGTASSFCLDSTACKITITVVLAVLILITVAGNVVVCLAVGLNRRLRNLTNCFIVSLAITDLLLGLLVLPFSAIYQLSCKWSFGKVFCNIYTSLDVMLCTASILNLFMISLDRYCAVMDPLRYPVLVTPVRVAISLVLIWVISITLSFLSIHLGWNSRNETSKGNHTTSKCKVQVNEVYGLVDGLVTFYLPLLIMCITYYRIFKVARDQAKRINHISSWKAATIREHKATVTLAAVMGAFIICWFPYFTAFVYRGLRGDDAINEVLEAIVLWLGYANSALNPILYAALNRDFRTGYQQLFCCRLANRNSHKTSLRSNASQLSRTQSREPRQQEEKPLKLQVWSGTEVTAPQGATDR
In assay [4] the target is Vasopressin V2 receptor (Homo sapiens, UniProt P30518).
Chain of Vasopressin V2 receptor (P30518 whole entry): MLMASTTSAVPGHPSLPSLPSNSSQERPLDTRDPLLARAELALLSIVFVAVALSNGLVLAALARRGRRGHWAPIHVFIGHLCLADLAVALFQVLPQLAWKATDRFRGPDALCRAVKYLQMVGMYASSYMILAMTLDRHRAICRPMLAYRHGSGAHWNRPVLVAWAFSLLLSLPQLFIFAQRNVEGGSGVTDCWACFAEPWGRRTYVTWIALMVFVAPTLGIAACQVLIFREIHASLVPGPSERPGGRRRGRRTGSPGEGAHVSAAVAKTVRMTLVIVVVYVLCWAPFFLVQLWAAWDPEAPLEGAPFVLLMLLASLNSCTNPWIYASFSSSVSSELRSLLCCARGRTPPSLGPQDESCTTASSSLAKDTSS
Assay [5] addresses T3, Muscarinic acetylcholine receptor M2 (Homo sapiens, UniProt P08172).
T3 sequence (P08172 whole entry): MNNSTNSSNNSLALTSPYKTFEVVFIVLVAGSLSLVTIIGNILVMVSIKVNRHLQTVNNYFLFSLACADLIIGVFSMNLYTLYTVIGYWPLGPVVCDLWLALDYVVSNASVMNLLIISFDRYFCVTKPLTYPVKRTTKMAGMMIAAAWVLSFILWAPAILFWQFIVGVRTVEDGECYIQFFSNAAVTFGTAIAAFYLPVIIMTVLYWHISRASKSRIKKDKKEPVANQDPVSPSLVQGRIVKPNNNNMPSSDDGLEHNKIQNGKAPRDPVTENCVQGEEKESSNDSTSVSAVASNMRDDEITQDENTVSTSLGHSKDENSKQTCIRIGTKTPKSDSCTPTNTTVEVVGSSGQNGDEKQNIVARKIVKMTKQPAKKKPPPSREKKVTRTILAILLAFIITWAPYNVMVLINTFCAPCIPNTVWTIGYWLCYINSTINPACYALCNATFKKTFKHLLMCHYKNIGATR
The format is functional, cell-based.

The target in assay [6] is T4, B2 bradykinin receptor (Homo sapiens, UniProt P30411).
T4 sequence (P30411 whole entry): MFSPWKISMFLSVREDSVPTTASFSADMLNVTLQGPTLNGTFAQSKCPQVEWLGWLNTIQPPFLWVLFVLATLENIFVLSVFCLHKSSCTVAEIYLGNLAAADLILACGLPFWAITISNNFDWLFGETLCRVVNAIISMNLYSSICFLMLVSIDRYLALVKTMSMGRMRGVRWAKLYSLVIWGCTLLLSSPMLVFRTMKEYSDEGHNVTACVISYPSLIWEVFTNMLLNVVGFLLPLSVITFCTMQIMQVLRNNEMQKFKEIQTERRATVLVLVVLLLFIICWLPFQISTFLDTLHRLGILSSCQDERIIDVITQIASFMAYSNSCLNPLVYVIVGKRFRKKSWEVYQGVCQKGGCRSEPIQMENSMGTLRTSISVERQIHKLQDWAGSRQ

Assay [7] deals with T5, Amine oxidase [flavin-containing] A (Homo sapiens, UniProt P21397).
T5 sequence (P21397 whole entry): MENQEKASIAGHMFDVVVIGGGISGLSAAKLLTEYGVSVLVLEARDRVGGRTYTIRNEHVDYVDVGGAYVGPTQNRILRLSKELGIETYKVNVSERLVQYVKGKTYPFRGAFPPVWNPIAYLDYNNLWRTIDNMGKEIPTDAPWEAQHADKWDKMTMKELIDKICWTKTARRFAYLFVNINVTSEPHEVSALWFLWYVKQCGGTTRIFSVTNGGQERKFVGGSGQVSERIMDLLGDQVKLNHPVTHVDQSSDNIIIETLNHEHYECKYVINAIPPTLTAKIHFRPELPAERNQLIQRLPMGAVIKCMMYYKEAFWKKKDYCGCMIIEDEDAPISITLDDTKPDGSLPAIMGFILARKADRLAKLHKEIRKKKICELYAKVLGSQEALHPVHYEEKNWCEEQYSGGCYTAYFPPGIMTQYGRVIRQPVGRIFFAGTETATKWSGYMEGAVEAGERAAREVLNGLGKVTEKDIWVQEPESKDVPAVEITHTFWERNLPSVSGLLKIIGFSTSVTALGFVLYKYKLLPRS
The class given is functional.

For assay [8], the target named is Sodium-dependent noradrenaline transporter (Homo sapiens, UniProt P23975).
Chain of Sodium-dependent noradrenaline transporter (P23975 whole entry): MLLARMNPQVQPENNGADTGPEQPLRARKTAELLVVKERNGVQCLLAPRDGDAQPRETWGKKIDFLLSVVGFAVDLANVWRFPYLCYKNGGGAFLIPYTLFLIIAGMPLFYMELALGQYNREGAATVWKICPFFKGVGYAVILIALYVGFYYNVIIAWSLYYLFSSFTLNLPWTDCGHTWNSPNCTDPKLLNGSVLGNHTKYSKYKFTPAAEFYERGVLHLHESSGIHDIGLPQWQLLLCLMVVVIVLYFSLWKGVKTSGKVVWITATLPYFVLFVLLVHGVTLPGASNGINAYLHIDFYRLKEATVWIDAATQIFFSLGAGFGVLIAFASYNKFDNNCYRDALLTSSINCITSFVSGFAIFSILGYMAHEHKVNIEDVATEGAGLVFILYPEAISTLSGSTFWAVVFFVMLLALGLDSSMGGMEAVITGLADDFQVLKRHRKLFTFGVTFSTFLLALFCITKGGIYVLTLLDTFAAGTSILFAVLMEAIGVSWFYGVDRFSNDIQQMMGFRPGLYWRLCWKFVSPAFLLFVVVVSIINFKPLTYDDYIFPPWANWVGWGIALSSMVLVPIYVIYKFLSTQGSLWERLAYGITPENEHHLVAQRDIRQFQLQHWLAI
In assay [9] the target is T6, Neuropeptide Y receptor type 1 (Homo sapiens, UniProt P25929).
T6 sequence (P25929 whole entry): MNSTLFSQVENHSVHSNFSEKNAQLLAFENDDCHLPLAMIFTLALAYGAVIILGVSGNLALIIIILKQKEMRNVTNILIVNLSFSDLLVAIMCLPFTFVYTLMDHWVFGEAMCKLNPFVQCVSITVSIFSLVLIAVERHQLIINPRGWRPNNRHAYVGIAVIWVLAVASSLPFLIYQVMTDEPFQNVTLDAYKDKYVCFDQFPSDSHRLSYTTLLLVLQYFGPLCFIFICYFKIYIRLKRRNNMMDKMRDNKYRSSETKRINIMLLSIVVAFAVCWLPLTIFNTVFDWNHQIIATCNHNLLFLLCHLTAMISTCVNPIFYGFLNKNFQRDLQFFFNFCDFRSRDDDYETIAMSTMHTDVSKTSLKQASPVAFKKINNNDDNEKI
To be noted: read-out: AC50.

The structures appear in SMILES notation.
Also: assay procedure not described here.

Turning to `CCCCC(=O)O[C@]1(C(=O)CO)[C@@H](C)C[C@H]2[C@@H]3CCC4=CC(=O)C=C[C@]4(C)[C@@]3(F)[C@@H](O)C[C@@]21C` [BETAMETHASONE VALERATE], the AC50 (commonly the midpoint of the concentration-response curve, whichever way the signal moves) is above 30 µM in [1]; above 30 µM in [2]; above 10 µM in assay [3]; above 30 µM in [4]; above 10 µM in [5]; above 30 µM in assay [6]. The figures for the AC50 in assay [7], in [8] and in assay [9] were above 10 µM, above 30 µM and above 30 µM, respectively.
Turning to `C/N=C(\NC)NCc1ccccc1` [BETHANIDINE], the AC50 is above 30 µM in assay [1]; above 10 µM in assay [2]; above 30 µM in assay [3]; above 30 µM in assay [4]; above 30 µM in assay [5]; above 30 µM in assay [6]. In addition, the AC50 in assay [7], in [8] and in [9] was above 30 µM throughout.
Take `COCC1=C(C(=O)O)N2C(=O)[C@@H](NC(=O)/C(=N\OC)c3csc(N)n3)[C@H]2SC1` [CEFPODOXIME]: the AC50 in assay [1] is above 30 µM; in [2], 0.12 µM; in assay [3], above 30 µM; in assay [4] it was above 30 µM; in assay [5], above 30 µM; in [6], above 30 µM. Moreover, the AC50 in assay [7], in assay [8] and in [9] was above 30 µM throughout.
Turning to `CC1OC2(CS1)CN1CCC2CC1` (stereo not drawn) [CEVIMELINE], the AC50 in [1] was above 30 µM; in assay [2], above 30 µM; in assay [3] it was above 30 µM; in assay [4], above 10 µM; in [5] it was 3.03 µM; in assay [6], above 10 µM. Besides, the AC50 in [7] is above 30 µM; in [8] it was above 10 µM; in assay [9], above 10 µM.
For `CNC1=Nc2ccc(Cl)cc2C(c2ccccc2)=[N+]([O-])C1` [CHLORDIAZEPOXIDE], the AC50 in assay [1] is above 30 µM; in assay [2], above 30 µM; in assay [3], above 30 µM; in assay [4], above 30 µM; in [5], above 10 µM; in assay [6], above 30 µM. The results for the AC50 in assay [7], in assay [8] and in [9] were above 10 µM, above 30 µM and above 30 µM, respectively.
Take `COc1cc(N)c(Cl)cc1C(=O)NC1CCN(Cc2ccccc2)CC1` [CLEBOPRIDE]: the AC50 in assay [1] is 8.6 µM; in [2], 13 µM; in [3] it was above 30 µM; in assay [4] it was above 30 µM; in assay [5] it was above 30 µM; in assay [6], above 30 µM. The AC50 is above 30 µM in [7], 15 µM in assay [8] and above 30 µM in assay [9].
Take `Nc1ncn([C@H]2C[C@H](O)[C@@H](CO)O2)c(=O)n1` [DECITABINE]: the AC50 in assay [1], in [2], in assay [3], in [4], in assay [5] and in [6] was above 30 µM throughout. Also, the AC50 in assay [7], in assay [8] and in [9] was above 30 µM each time.
Turning to `CC(C)(C)C(=O)OCC(=O)[C@H]1CC[C@H]2[C@@H]3CCC4=CC(=O)CC[C@]4(C)[C@H]3CC[C@]12C` [DESOXYCORTICOSTERONE PIVALATE], the AC50 is above 30 µM in [1]; above 30 µM in assay [2]; above 10 µM in assay [3]; above 10 µM in assay [4]; above 10 µM in assay [5]; above 10 µM in assay [6]. Moreover, the AC50 in assay [7], in assay [8] and in assay [9] was above 10 µM throughout.
On to `CC(CCc1ccc(O)cc1)NCCc1ccc(O)c(O)c1` (stereo not drawn) [DOBUTAMINE], for which the AC50 in assay [1] is 27 µM; in [2], above 30 µM; in assay [3] it was above 10 µM; in assay [4] it was above 30 µM; in assay [5], above 30 µM; in assay [6], above 30 µM. The AC50 in assay [7] is above 30 µM; in assay [8] it was 1.73 µM; in assay [9], above 30 µM.
As for `CC(C(=O)O)c1ccc(-c2ccccc2)c(F)c1` (stereo not drawn) [FLURBIPROFEN], the AC50 was above 10 µM in assay [1]; 2.6 µM in assay [2]; above 10 µM in assay [3]; above 10 µM in [4]; above 10 µM in [5]; above 10 µM in assay [6]. The AC50 in [7], in assay [8] and in [9] was above 10 µM each time.
Take `CCC(=O)O[C@]1(C(=O)SCF)[C@H](C)C[C@H]2[C@@H]3C[C@H](F)C4=CC(=O)C=C[C@]4(C)[C@@]3(F)[C@@H](O)C[C@@]21C` [FLUTICASONE PROPIONATE]: the AC50 in [1] was above 30 µM; in assay [2], above 30 µM; in assay [3] it was above 10 µM; in [4] it was above 30 µM; in [5], above 30 µM; in assay [6], above 30 µM. Also, the AC50 in assay [7], in assay [8] and in assay [9] was above 30 µM throughout.
Turning to `C[C@]12CCC(=O)C(O)=C1CC[C@@H]1[C@@H]2CC[C@]2(C)C(=O)CC[C@@H]12` [FORMESTANE], the AC50 in [1], in assay [2], in assay [3], in assay [4], in assay [5] and in [6] was above 30 µM in each case. The AC50 in assay [7], in [8] and in [9] was above 30 µM in each case.

The values above are taken from ChEMBL document CHEMBL5291721, “A preclinical secondary pharmacology resource illuminates target-adverse drug reaction associations of marketed drugs” (Nat Commun, 2023).
